What was measured:
[1] = tested on: Synechococcus sp. PCC 7002; test: Tolerance testing: growth (OD750) after a one time bolus of 1,3-propanediol; assay type: cell-based; conditions: OD750 monitored for one week
Description: (§1) The tolerance of cyanobacterial strains Synechocystis sp. PCC 6803 and Synechococcus sp. PCC 7002 to the presence of accumulated 1,3-propanediol in the culture medium was examined by adding a one time bolus of varying amounts of 1,3-propanediol (ranging from 0.05% to 5%) to exponential phase cultures and comparing the growth of these cultures to a wild type culture with no addition. Growth was monitored by optical density (OD750) for one week. There was no effect on the growth of Synechocystis sp. PCC 6803 in the presence of up to 1% 1,3-propanediol compared to the control (no addition of 1,3-propanediol). […] At 5% 1,3-propanediol, Synechocystis sp. […] There was no effect on the growth of Synechococcus sp. PCC 7002 with up to 1% 1,3-propanediol addition.

[2] = tested on: Synechocystis sp. PCC 6803; test: as above; assay type: cell-based; conditions: OD750 monitored for one week
Description: as §1

OCCCO [1,3-propanediol]
survival of the culture ([1]; 2% 1,3-propanediol addition): lethal resulting in a completely bleached culture | effect on growth compared to the control ([1]; up to 1% 1,3-propanediol addition, exponential phase culture): no effect | effect on growth compared to the control ([2]; 2% and 3% 1,3-propanediol in culture medium): inhibition effect resulting in a yellowing discoloration of the culture, slower growth and clumping | survival of the culture ([2]; 5% 1,3-propanediol in culture medium): could not survive and bleached out after 3 days | effect on growth compared to the control ([2]; up to 1% 1,3-propanediol in culture medium, exponential phase culture): no effect
